A word on the EC50: it is the concentration at which the effect is half-maximal. A higher EC50 goes with lower potency in that assay.

Experimental findings from patent publication US8975235B2, “Lysophosphatidic acid receptor antagonists” (InterMune, Inc., priority 2011, dated 2015) are described below.

Human LPA1, sequence (Q92633 whole entry, the tested form may be a part): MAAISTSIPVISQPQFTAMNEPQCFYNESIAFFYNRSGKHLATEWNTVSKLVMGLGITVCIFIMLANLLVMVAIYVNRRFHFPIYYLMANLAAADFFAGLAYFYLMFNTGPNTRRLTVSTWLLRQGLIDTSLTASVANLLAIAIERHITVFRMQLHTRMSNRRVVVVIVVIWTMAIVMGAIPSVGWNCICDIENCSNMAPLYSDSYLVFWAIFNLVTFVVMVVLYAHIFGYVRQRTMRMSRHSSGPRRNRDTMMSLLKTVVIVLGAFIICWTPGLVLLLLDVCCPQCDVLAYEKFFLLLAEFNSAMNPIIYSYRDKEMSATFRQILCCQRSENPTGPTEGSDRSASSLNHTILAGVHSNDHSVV

The assay addresses Human LPA1 (Homo sapiens, UniProt Q92633). Nature of the assay: Beta-Arrestin based assay for human LPA1R antagonists (PathHunter). It is filed as cell-based. Further details: host or cells: CHO. The settings on record: CHO cells stably expressing ProLink tagged human LPA1R; agonist LPA 0.5 micromolar. The protocol: Beta-Arrestin Based Assays for Human LPA1R Antagonists and Agonists
A CHO cell line stably expressing the ProLink™ tagged human LPA1R was obtained from DiscoverX Inc, Fremont, Calif. In this system, β-Arrestin was fused to an N-terminal deletion mutant of β-galactosidase (termed the enzyme acceptor or EA), the human LPA1R was fused to a smaller (42 amino acids) weakly complementing fragment termed ProLink™. […] Cell handling and assays were performed according to protocols specified in the PathHunter® assays kits (DiscoverX, Fremont, Calif.). Assays were performed in quadruplicate in white 384 well plates. End point luminescence data were plotted and fit to a 4 parameter logistic function to obtain IC50 values. For antagonist assays, an […] concentration of agonist (LPA) equal to 0.5 micromolar was used.
The compound `Cc1cc(-c2ccc(-c3snc(C)c3NC(=O)O[C@H](C)c3ccccc3Cl)cc2)ccc1CC(=O)O` [Compound 118] yielded an EC50 of 50 to 500 nM. In the case of `Cc1nsc(-c2ccc(-c3ccc(C4(C(=O)O)CC4)cc3)cc2F)c1NC(=O)O[C@H](C)c1ccccc1Cl` [Compound 119] it was less than 50 nM; in that of `Cc1nsc(-c2cc(Cl)c(-c3ccc(C4(C(=O)O)CC4)cc3)cc2F)c1NC(=O)O[C@H](C)c1ccccc1Cl` [Compound 120], less than 50 nM. Under `Cc1cc(-c2snc(C)c2NC(=O)O[C@H](C)c2ccccc2Cl)c(F)cc1-c1ccc(C2(C(=O)O)CC2)cc1` [Compound 121] stands less than 50 nM; under `Cc1cc(-c2snc(C)c2NC(=O)O[C@H](C)c2ccccc2Cl)c(Cl)cc1-c1ccc(C2(C(=O)O)CC2)cc1` [Compound 122], less than 50 nM. In the case of `Cc1cc(-c2snc(C)c2NC(=O)O[C@H](C)c2ccccc2Cl)c(C)cc1-c1ccc(C2(C(=O)O)CC2)cc1` [Compound 123] it was 50 to 500 nM; in that of `Cc1cc(-c2ccc(C3(C(=O)O)CC3)cc2)c(F)cc1-c1snc(C)c1NC(=O)O[C@H](C)c1ccccc1Cl` [Compound 124], less than 50 nM. The compound `Cc1nsc(-c2ccc(-c3ccc(C4(C(=O)O)CCCC4)cc3)cc2)c1NC(=O)O[C@H](C)c1ccccc1` [Compound 125] gave an EC50 of 50 to 500 nM. Under `Cc1nsc(-c2ccc(-c3ccc(C4(C(=O)O)CCCCC4)cc3)cc2)c1NC(=O)O[C@H](C)c1ccccc1` [Compound 126] stands 50 to 500 nM; under `Cc1nsc(-c2ccc(-c3ccc(C4(C(=O)O)CCC4)cc3)cc2)c1NC(=O)O[C@H](C)c1ccccc1` [Compound 127], 50 to 500 nM; under `Cc1noc(C#Cc2ccc3cc(CC(=O)O)ccc3c2)c1NC(=O)O[C@H](C)c1ccccc1` [Compound 128], 50 to 500 nM.

On to `Cc1noc(C#Cc2ccc3cc(CC(=O)O)ccc3c2)c1NC(=O)O[C@H](C)c1ccccc1Cl` [Compound 129], for which the EC50 fell in the range of 50 to 500 nM. In the case of `Cc1noc(C#Cc2ccc3cc(C4(C(=O)O)CC4)ccc3c2)c1NC(=O)O[C@H](C)c1ccccc1` [Compound 130] it was less than 50 nM. In the case of `Cc1noc(C#Cc2ccc3cc(C4(C(=O)O)CC4)ccc3c2)c1NC(=O)O[C@H](C)c1ccccc1Cl` [Compound 131] it was less than 50 nM; in that of `Cc1noc(-c2ccc(-c3ccc(N4CC[C@H](C(=O)O)C4)cc3)cc2)c1NC(=O)O[C@H](C)c1ccccc1` [Compound 132], 50 to 500 nM; in that of `Cc1noc(-c2ccc(-c3ccc(N4CC[C@@H](C(=O)O)C4)cc3)cc2)c1NC(=O)O[C@H](C)c1ccccc1` [Compound 133], more than 500 nM. In the case of `Cc1noc(-c2ccc(-c3ccc(N4CC[C@@H](C(=O)O)C4)cc3)cc2)c1NC(=O)O[C@H](C)c1ccccc1Cl` [Compound 134] it was 50 to 500 nM; in that of `Cc1noc(-c2ccc(-c3ccc(N4CC[C@H](C(=O)O)C4)cc3)cc2)c1NC(=O)O[C@H](C)c1ccccc1Cl` [Compound 135], 50 to 500 nM; in that of `Cc1noc(-c2ccc(-c3ccc(N4CCC[C@@H](C(=O)O)C4)cc3)cc2)c1NC(=O)O[C@H](C)c1ccccc1` [Compound 136], 50 to 500 nM. Consider `Cc1noc(-c2ccc(-c3ccc(N4CCC[C@H](C(=O)O)C4)cc3)cc2)c1NC(=O)O[C@H](C)c1ccccc1` [Compound 137], for which the EC50 fell in the range of 50 to 500 nM. Under `Cc1noc(-c2ccc(-c3ccc(N4CCC[C@@H](C(=O)O)C4)cc3)cc2)c1NC(=O)O[C@H](C)c1ccccc1Cl` [Compound 138] stands 50 to 500 nM; under `Cc1noc(-c2ccc(-c3ccc(N4CCC[C@H](C(=O)O)C4)cc3)cc2)c1NC(=O)O[C@H](C)c1ccccc1Cl` [Compound 139], 50 to 500 nM. Under `Cc1noc(-c2ccc3cc(C#CC4(C(=O)O)CC4)ccc3c2)c1NC(=O)O[C@H](C)c1ccccc1Cl` [Compound 141] stands less than 50 nM. Under `Cc1noc(-c2ccc3cc(C#CC4(C(=O)O)CC4)ccc3c2)c1NC(=O)OCc1ccccc1` [Compound 142] stands less than 50 nM; under `C[C@@H](OC(=O)Nc1ncoc1-c1ccc(-c2ccc(C3(C(=O)O)CC3)cc2)cc1)c1ccccc1` [Compound 143], 50 to 500 nM.

`C[C@@H](OC(=O)Nc1ncoc1-c1ccc(-c2ccc(C3(C(=O)O)CC3)cc2)cc1)c1ccccc1Cl` [Compound 144] displayed an EC50 of less than 50 nM. Under `O=C(Nc1ncoc1-c1ccc(-c2ccc(C3(C(=O)O)CC3)cc2)cc1)OCc1ccccc1` [Compound 145] stands 50 to 500 nM; under `O=C(Nc1ocnc1-c1ccc(-c2ccc(C3(C(=O)O)CC3)cc2)cc1)OCc1ccccc1` [Compound 148], more than 500 nM. Compound `C[C@@H](OC(=O)Nc1c(-c2ccc(-c3ccc(C4(C(=O)O)CC4)cc3)cc2)oc2cnccc12)c1ccccc1` [Compound 150] came in with an EC50 of less than 50 nM. Under `O=C(Nc1c(-c2ccc(-c3ccc(C4(C(=O)O)CC4)cc3)cc2)oc2cnccc12)OCc1ccccc1` [Compound 151] stands 50 to 500 nM; under `Cc1nc(-c2ccc(-c3ccc(C4(C(=O)O)CC4)cc3)cc2)c(NC(=O)O[C@H](C)c2ccccc2)o1` [Compound 154], 50 to 500 nM; under `Cc1nc(-c2ccc(-c3ccc(C4(C(=O)O)CC4)cc3)cc2)c(NC(=O)O[C@H](C)c2ccccc2Cl)o1` [Compound 155], 50 to 500 nM. In the case of `Cc1nc(-c2ccc(-c3ccc(C4(C(=O)O)CC4)cc3)cc2)c(NC(=O)OCc2ccccc2)o1` [Compound 156] it was more than 500 nM. Compound `Cc1nnn(-c2ccc(-c3ccc(C4(C(=O)O)CC4)cc3)cc2)c1NC(=O)OCc1ccccc1` [Compound 157] gave an EC50 of 50 to 500 nM. In the case of `C[C@@H](OC(=O)Nc1nncn1-c1ccc(-c2ccc(C3(C(=O)O)CC3)cc2)cc1)c1ccccc1` [Compound 158] it was more than 500 nM; in that of `C[C@@H](OC(=O)Nc1nncn1-c1ccc(-c2ccc(C3(C(=O)O)CC3)cc2)cc1)c1ccccc1Cl` [Compound 159], more than 500 nM. In the case of `O=C(Nc1nncn1-c1ccc(-c2ccc(C3(C(=O)O)CC3)cc2)cc1)OCc1ccccc1` [Compound 160] it was more than 500 nM. Under `Cc1nc(NC(=O)O[C@H](C)c2ccccc2)n(-c2ccc(-c3ccc(C4(C(=O)O)CC4)cc3)cc2)n1` [Compound 161] stands more than 500 nM; under `Cc1nc(NC(=O)O[C@H](C)c2ccccc2Cl)n(-c2ccc(-c3ccc(C4(C(=O)O)CC4)cc3)cc2)n1` [Compound 162], more than 500 nM.

In turn, `C[C@@H](OC(=O)Nc1ccn(-c2ccc(-c3ccc(C4(C(=O)O)CC4)cc3)cc2)n1)c1ccccc1` [Compound 163] came in with an EC50 of more than 500 nM. Compound `C[C@@H](OC(=O)Nc1cncn1-c1ccc(-c2ccc(C3(C(=O)O)CC3)cc2)cc1)c1ccccc1Cl` [Compound 164] had an EC50 of 50 to 500 nM. As to `C[C@@H](OC(=O)Nc1cncn1-c1ccc(-c2ccc(C3(C(=O)O)CC3)cc2)cc1)c1ccccc1` [Compound 165], the EC50 lay in the range of 50 to 500 nM. Under `O=C(Nc1cncn1-c1ccc(-c2ccc(C3(C(=O)O)CC3)cc2)cc1)OCc1ccccc1` [Compound 166] stands more than 500 nM; under `Cn1cnc(-c2ccc(-c3ccc(C4(C(=O)O)CC4)cc3)cc2)c1NC(=O)OCc1ccccc1` [Compound 167], more than 500 nM; under `C[C@@H](OC(=O)Nc1c(-c2ccc(-c3ccc(C4(C(=O)O)CC4)cc3)cc2)ncn1C)c1ccccc1Cl` [Compound 168], less than 50 nM.

As to `C[C@@H](OC(=O)Nc1c(-c2ccc(-c3ccc(C4(C(=O)O)CC4)cc3)cc2)ncn1C)c1ccccc1` [Compound 169], the EC50 was 50 to 500 nM. On to `Cn1ncc(-c2ccc(-c3ccc(C4(C(=O)O)CC4)cc3)cc2)c1NC(=O)OCc1ccccc1` [Compound 172], for which the EC50 was less than 50 nM.

As to `O=C(Nc1snnc1-c1ccc(-c2ccc(C3(C(=O)O)CC3)cc2)cc1)OCc1ccccc1` [Compound 173], the EC50 was more than 500 nM. In the case of `C[C@@H](OC(=O)Nc1snnc1-c1ccc(-c2ccc(C3(C(=O)O)CC3)cc2)cc1)c1ccccc1` [Compound 174] it was 50 to 500 nM; in that of `C[C@@H](OC(=O)Nc1snnc1-c1ccc(-c2ccc(C3(C(=O)O)CC3)cc2)cc1)c1ccccc1Cl` [Compound 175], 50 to 500 nM. In the case of `C[C@@H](OC(=O)Nc1nonc1-c1ccc(-c2ccc(C3(C(=O)O)CC3)cc2)cc1)c1ccccc1` [Compound 176] it was less than 50 nM; in that of `C[C@@H](OC(=O)Nc1nonc1-c1ccc(-c2ccc(C3(C(=O)O)CC3)cc2)cc1)c1ccccc1Cl` [Compound 177], less than 50 nM; in that of `Cc1noc(-c2nc3cc4oc(C5(C(=O)O)CC5)nc4cc3o2)c1NC(=O)O[C@H](C)c1ccccc1` [Compound 178], 50 to 500 nM.

For the compound `Cc1nsc(-c2cc(F)c(-c3ccc(C4(C(=O)O)CC4)cc3)cc2Cl)c1NC(=O)O[C@H](C)c1ccccc1Cl` [Compound 180], the EC50 was less than 50 nM. Under `Cc1nsc(-c2cc(F)c(-c3ccc(C4(C(=O)O)CC4)cc3)cc2F)c1NC(=O)O[C@H](C)c1ccccc1Cl` [Compound 181] stands less than 50 nM. In the case of `Cc1nsc(-c2c(F)cc(-c3ccc(C4(C(=O)O)CC4)cc3)cc2F)c1NC(=O)O[C@H](C)c1ccccc1` [Compound 183] it was 50 to 500 nM; in that of `Cc1nsc(-c2ccc(-c3ccc(C4(C(=O)O)CC4)cc3)cc2F)c1NC(=O)O[C@H](C)c1ccccc1` [Compound 184], less than 50 nM. `Cc1nsc(-c2ccc(-c3ccc(C4(C(=O)O)CC4)cc3)c(Cl)c2)c1NC(=O)O[C@H](C)c1ccccc1Cl` [Compound 186] gave an EC50 of less than 50 nM. On to `Cc1nsc(-c2ccc(-c3ccc(C4(C(=O)O)CC4)cc3)cc2Cl)c1NC(=O)O[C@H](C)c1ccccc1Cl` [Compound 187], for which the EC50 was less than 50 nM.
